No end group written: not given here. *: point of attachment. 5FAM = O=C1OC2(c3ccc(O)cc3Oc3cc(O)ccc32)c2ccc(C(=O)*)cc21
Experiments:
[1] = test system: serum antibodies to equine infectious anemia virus; assay: Fluorescence polarization (FP) assay of fluorescein-labeled peptides with diluted horse serum; assay type: binding; conditions: for FP signal of R51 with positive sera: approx. 2 nM peptide, 1:100 serum, 50 mM sodium phosphate pH 6.8, 20 min, 5CF vs 6CF label; for FP reactivity with experimentally infected serum: Pony 95 serum; for FP interaction with EIAV-positive sera: EIAV-positive sera incl. R51 FP-nonreactive samples
Procedure: Several different buffer compositions and detergents were therefore tested for compatibility with horse serum. When horse serum was diluted 1:50 or 1:100 into 20-50 mM sodium phosphate without NaCl, this problem was virtually eliminated. […] Under the low-salt conditions, the polarization of peptide R51-5CF increased from 50 mP to over 200 mP with a 1:100 dilution of a strong positive EIAV antiserum from an experimental infection (Pony 95). Thus it was determined that the optimal buffer composition for the FP assay was 50 mM sodium phosphate, pH 6.8-7.0.
(§1) Fluorescence Polarization (FP) Measurements. The fluorescein-labeled peptides were evaluated for their suitability as probes for FP using an FPM-1 Fluorescence Polarization Analyzer (Jolley Consulting and Research, Grayslake, Ill.) batch mode with the following settings: PMT gain 80, heater off, single read. Serum was diluted 1:100 or 1:50 into 2 mL of buffer in 12×75 mm borosilicate glass tubes (VWR). After reading the blank, fluorescently labeled peptide was added to a final concentration of 1-2 nM (100K-200K total intensity) and incubated for at least 15 minutes. The FP of the sample was measured and expressed as millipolarization units (mP). Some of the sera were very dark, presumably due to hemolysis. If such a serum sample had low lamp feedback (<0.63), a two-fold further dilution was tested. Polarization data was output to a computer running the FPM-1 data collection software, then converted to an ASCII text file and imported into the Quattro Pro spreadsheet program (Corel, Ottawa, Ontario) for data analysis and graphing.
Because different fluorescein linkages can result in differences in sensitivity in the FP assay, R51 peptide was labeled with 6-carboxyfluorescein so the difference between the two labels could be ascertained. […] Peptides (approx. 2 nM) were incubated with a 1:100 dilution of serum in 50 mM sodium phosphate, pH 6.8, for 20 minutes. The results are shown in FIG. 2, in order of decreasing peptide length. In FIG. 2, black bars show the results for experimentally-infected (pony 95), hatched bars for field infected ([…]), gray bars for uninfected (Petite), and white bars for no serum added. […] As the R51-6CF probe was the most sensitive to the positive sera tested, 6-carboxyfluorescein is the preferred fluorophore. However, other fluorophores, such as rhodamine, BODIPY™ M, Texas Red™ and Lucifer yellow, could also be used. For a detailed listing of a variety of commercially available fluorophores, see Handbook of Fluorescent Probes and Research Chemicals, ed. Karen Larison, by Richard P. Haughland, Ph.D., 5th ed., 1992, published by Molecular Probes, Inc.

[2] = test system: anti-EIAV antibodies in horse sera; assay: Anti-fluorescein capture ELISA; assay type: binding; conditions: for ELISA reactivity: Pony 95 and Lady sera; for reactivity in the anti-fluorescein ELISA: general statement of Example 3; for ELISA reactivity with FP-nonreactive sera: sera 1:50, FP-nonreactors from Texas
Procedure: Anti-Fluorescein Capture ELISA. In order to measure antibody binding to test peptides without regard to their suitability for FP, an anti-fluorescein capture ELISA was used. To each well of an Immulon 2 HB 96-well plate (Dynex, Chantilly, Va.) was added 50 μL rabbit anti-fluorescein antibody (Molecular Probes), 3.5 μg/ml in 50 mM sodium bicarbonate, pH 9.6; the plates were sealed and incubated overnight. The wells were blocked with Blotto (5% nonfat dry milk, 5% normal bovine serum, 0.025% Tween 20 in PBS (PBST). The plates were then incubated with test horse sera, diluted 1:100 in Blotto, for 1 h at RT, washed as above, then incubated with anti-horse IgG(Fc)-HRP (United States Biochemical), diluted 1:10^5 in Blotto, for 1 h at RT and washed. The substrate, TM Blue Soluble reagent (200 μL/well; Intergen, Milford, Mass.) was added and incubated for 20 minutes with shaking, and the reaction stopped with the addition of 50 μL/well 1.0 N H2SO4 for 5 minutes with shaking. Absorbance at 450 nm was measured on a Dynex MR5000 microplate reader. Because each peptide caused a slightly different background absorbance, control wells containing no horse serum were included for each peptide tested.
Some of the sera from Missouri (4/10) could not be tested due to interference from a high level of hemolysis, resulting in low lamp feedback values. […] In order to confirm the serological status of FP-unreactive sera, they were tested in a western blot (data not shown) as well as in the antifluorescein-capture ELISA using the seven original peptides derived from the three major antigens mentioned above (FIG. 5). Sera (1:50 dilution) were tested for reactivity to four EIAV-derived, fluorescein-labeled peptides in an ELISA format as described in the methods. NHS, normal (uninfected) horse serum; Tx43 through Txll7, FP-nonreactive, Tx47 through pony 95, FP-reactive sera. Black bars, peptide R51F; hatched bars, R32; gray bars, pepl2; white bars, Sam50.

anti-EIAV IgG = assay: Fluorescence polarization of probe peptides with purified IgG from field-infected horse (Lady); assay type: binding; conditions: for change in FP with purified antibodies from field-infected animal: Lady IgG
Procedure: Due to problems encountered with testing horse serum, the initial evaluation made use of purified IgG from a reference long-term, field-infected horse (Lady). Purified IgG from field infected horse serum (100 μg/ml) was incubated with the candidate probe peptides (2 nM) in PBS for 20 min. The results are shown in FIG. 1, wherein black bars indicate probe added to IgG and gray bars indicate probe in buffer alone. All peptides were the 5-carboxyfluorescein derivatives. […] The other peptides in the panel had only slight changes in polarization in the presence of Lady IgG.
as §1

[3] = Behaviour of the R51 probe in solution (cyclization, dilution); assay type: physicochemical
Procedure: Because R51 contains two Cys residues that may form a loop in the native protein, the differences in reactivity were assessed between linear or cyclized peptide (cyclic by virtue of an intramolecular disulfide bond).

Substance: R51-6CF: R51 peptide (SEQ ID NO 1) labeled with 6-carboxyfluorescein (IGCIERTHVFCHTG; cysteine pairing not given here; also: 6-carboxyfluorescein label, position not given here)
- polarization values of negative serum samples ([1]; 110 AGID-negative sera, 1:100 dilution): 73.6±3.0 mP
- FP signal of R51 with positive sera [1]: > 300 mP
- average mP value with field-infected sera ([1]; measurable sera of 153 field-infected animals, 1:100 dilution, ~2 nM peptide): 150±55 mP

Substance: KERQQVEETFNLI (Equine infectious anemia virus) [R32]
- ELISA reactivity [2]: reacted very strongly
- reactivity in the anti-fluorescein ELISA [2]: strong and broad reactivity
- ELISA reactivity with FP-nonreactive sera [2]: no measurable antibody
- change in FP with purified antibodies from field-infected animal (anti-EIAV IgG): did not exhibit an increase in FP
- FP reactivity with experimentally infected serum [1]: some reactivity

Substance: QQVEETFNLI (Equine infectious anemia virus) [R32QQ]
- maximum FP ([1]; 1:100 dilution of pony 95, R32 length series, fluorescein-6-isothiocyanate label): > 200 mP
- FP reactivity with experimentally infected serum [1]: most sensitive peptide

Substance: R51-5CF: R51 peptide labeled at the N-terminus with 5-carboxyfluorescein (5FAM-IGCIERTHVFCHTG; cysteine pairing not given here)
- free-peptide polarization level (anti-EIAV IgG; probe 2 nM in PBS buffer alone, 5-carboxyfluorescein derivative): about 60 mP
- FP in the presence of Lady IgG (anti-EIAV IgG; probe 2 nM, 60-100 μg/ml Lady IgG in PBS, 20 min): around 140 MP
- FP signal of R51 with positive sera [1]: 220 mP
- FP reactivity with field-infected horse serum ([1]; field infected horses (Lady)): sensitive to serum from field infected horses
- polarization with strong positive EIAV antiserum ([1]; low-salt conditions, 1:100 dilution, experimental infection (Pony 95)): over 200 mP
- polarization of peptide before serum ([1]; low-salt conditions, starting value): 50 mP

Substance: IGCIERTHVFCHTG (Equine infectious anemia virus) [R51]
- precipitation of probe ([3]; conditions that allow cyclization): prone to precipitation
- stability of peptide ([3]; upon dilution): stable upon dilution
- ELISA reactivity with FP-nonreactive sera [2]: no measurable antibody
- sensitivity of cyclized vs linear peptide ([1]; cyclic by intramolecular disulfide bond, field isolates): more sensitive to field isolates than the linear form

Substance: APLVAPPQGPIPMT (Equine infectious anemia virus) [Sam50A]
- FP interaction with EIAV-positive sera [1]: none of these analogs displayed a measurable interaction

Substance: ADDWDNRHPLPNAPLVAPPQGPIPMT (Equine infectious anemia virus) [Sam50]
- FP interaction with EIAV-positive sera [1]: insensitive to EIAV-positive sera

Substance: HPLPNAPLVAPPQGPIPMT (Equine infectious anemia virus) [Sam50H]
- FP interaction with EIAV-positive sera [1]: none of these analogs displayed a measurable interaction

Substance: LETWKLVKTSGVTPLPISSEANTGL (Equine infectious anemia virus) [Peptide 12]
- ELISA reactivity [2]: reacted very strongly
- reactivity in the anti-fluorescein ELISA [2]: strong and broad reactivity
- ELISA reactivity with FP-nonreactive sera [2]: bind only weakly
- change in FP with purified antibodies from field-infected animal (anti-EIAV IgG): did not exhibit an increase in FP
- FP reactivity with experimentally infected serum [1]: some reactivity
